Data set [1] has as its system Herpes simplex type 1 virus (HFEM strain). Kind of data set: Plaque reduction test in Vero cells infected with Herpes simplex type 1 virus. Format: cell-based. As to conditions: for PDD50: concentration causing a 50% reduction in the number of virus plaques. The procedure:
(§1) Vero (African Green Monkey Kidney) cells were grown to confluence in 6 well multidishes, each well being 3.5 cm in diameter. The cells were incubated with Herpes simplex type 1 virus (HFEM strain) and overlaid with 0.5 mL of 0.9% agarose (w/v) in maintenance medium containing the test compound at a range of concentrations from 3 µg/mL in half-log dilution steps. The virus infected cultures were then incubated at 37 °C for 6 days before fixing in 4% formaldehyde solution and staining with carbolfuchsin. The dishes were then examined to find what concentration of test compound causing a 50% reduction in the number of virus plaques formed (PDD50 value) and the minimum concentration of test compound which killed the cell monolayer, leaving a clear zone devoid of cells and virus plaques (MTD).

The subject of data set [2] is Vero (African Green Monkey Kidney) cells. Description: Minimum concentration killing the Vero cell monolayer, read in the plaque reduction test. Type of data set: cell-based. As to conditions: minimum concentration which killed the cell monolayer; virus-infected Vero cells, 6 days at 37°C. As to the method: as §1
Where [3] appears, read: same PDD50 values given in µM, 6 days at 37°C, read-out: PDD50 (the source's name).

Counter-ions that a name gives are not always drawn. Like-named read-outs stand apart in the source and are kept apart here.

In turn, `NC(Cc1ccccc1)C(=O)OC[C@H]1O[C@@H](n2cc(/C=C/Br)c(=O)[nH]c2=O)C[C@@H]1OC(=O)C(N)Cc1ccccc1` (stereo partly drawn) [Example 7, E-5-(2-Bromovinyl)-3',5'-di-O-phenylalanyl-2'-deoxyuridine bis trifluoroacetate] yielded a PDD50 in data set [1] (6 days at 37°C, bis trifluoroacetate) of 0.14 µg/mL. The IC50 in data set [1] (read-out: PDD50, same PDD50 values given in µM, 6 days at 37°C, bis trifluoroacetate) turned out to be 0.16 µM. Further, the MTD in data set [2] was greater than 100 µg/mL.
In data set [1] (6 days at 37°C), `CC(C)C[C@H](N)C(=O)OC[C@H]1O[C@@H](n2cc(/C=C/Br)c(=O)[nH]c2=O)C[C@@H]1OC(=O)[C@@H](N)CC(C)C` [Example 18, E-5-(2-bromovinyl)-3',5'-di-L-leucyl-2'-deoxyuridine bis bisulphate salt] gave a PDD50 of 0.28 µg/mL. In data set [1] (read-out: PDD50, same PDD50 values given in µM, 6 days at 37°C), the IC50 was found to be 0.37 µM. Besides, in data set [2], the MTD is on record as greater than 100 µg/mL.
Molecule “E-5-(2-Bromovinyl)-3',5'-di-L-alanyl-2'-deoxyuridine bis trifluoroacetate [Example 38]” came in with a PDD50 in data set [1] (6 days at 37°C) of 0.26 µg/mL. Besides, the IC50 in data set [1] (setting [3]) was determined as 0.37 µM. This molecule also had an MTD in data set [2] greater than 100 µg/mL.
“E-5-(2-Bromovinyl)-3',5'-di-L-leucyl-2'-deoxyuridine bis trihydrogenpyrophosphate [Example 41]” returned a PDD50 in data set [1] (6 days at 37°C) of 0.55 µg/mL. Moreover, the IC50 in data set [1] (setting [3]) was 0.6 µM. The MTD in data set [2] was greater than 100 µg/mL.
In data set [1] (6 days at 37°C), “E-5-(2-Bromovinyl)-3',5'-di-glycyl-2'-deoxyuridine bis bisulphate [Example 17]” yielded a PDD50 of 0.49 µg/mL. The IC50 in data set [1] (setting [3]) amounted to 0.76 µM. The molecule further gave an MTD in data set [2] greater than 100 µg/mL.
The like results for “E-5-(2-Bromovinyl)-5'-O-phenylalanyl-2'-deoxyuridine trifluoroacetate [Example 9]” were, in that order, 0.19 µg/mL, 0.32 µM and greater than 100 µg/mL.
Molecule “E-5-(2-bromovinyl)-3',5'-di-L-lysyl-2'-deoxyuridine tetrakis trifluoroacetate dihydrate [Example 40]” displayed a PDD50 in data set [1] (6 days at 37°C) of 0.19 µg/mL. In addition, in data set [1] (setting [3]), the IC50 was determined as 0.18 µM. For the same molecule, the MTD in data set [2] is listed as greater than 100 µg/mL.

The record behind these values is patent publication EP0080305A1, “Antiviral 2'-deoxyuridines, their preparation and use” (BEECHAM GROUP PLC, priority 1981, dated 1983).
